Data reported in patent publication US9656962B2, “Ring-contracted morphinans and the use thereof” (Purdue Pharma L.P., priority 2013, dated 2017).

Biological target: κ-opioid receptor (Homo sapiens (Human), UniProt P41145)
Test: κ-opioid receptor [35S]GTPγS functional assay, U-2 OS cells (Table 5)
Type: biochemical
How it was run: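 [35S]GTPγS binding in κ receptor membranes (0.026 μg/μl protein) with 10 μg/mL saponin, 3 μM GDP and 0.20 nM [35S]GTPγS in pH 7.4 HEPES/NaCl/MgCl2 buffer. Agonist incubation lasted 30 min at about 25 °C, followed by filtration and scintillation counting. Emax is expressed relative to U69,593.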

NC(=O)[C@@H]1C[C@]23CCN(CC4CC4)[C@H](Cc4ccc(O)cc42)[C@]3(O)C1 [Compound 31, (2R,3aS,4R,9bS)-12-(cyclopropylmethyl)-3a,8-dihydroxy-1,2,3,3a,4,5-hexahydro-4,9b-(epiminoethano)cyclopenta-[a]naphthalene-2-carboxamide]
Emax (relative to U69,593): 87.5 ± 5.04%
EC50 (κ GTP): 2.62 ± 0.024 nM
